Laboratory results taken from BindingDB's records for PubMed 33077264 (Menoufia University, 2021).
pIC50: −log10 of the molar value.

Molecular target: Lysine-specific histone demethylase 1A (Homo sapiens, UniProt O60341)
Test: Inhibition of N-terminal GST tagged LSD1 (residues 171 - 852) (unknown origin) overexpressed in Escherichia coli using ARTK(Me)2QTARKSTGGKAPRKQLAas substrate incubated for 20 mins by spectrophotometric analysis

**Q.** `Nc1ccccc1NC(=O)c1ccc(CCCC(=O)Nc2ccc(C3CC3N)cc2)cc1` (stereo unspecified) was tested. Which pIC50 did it give?
**A.** Its pIC50 is 6.48.
